The test system of the test is CD-1 mice. The experiment in a line: Expression of luciferase induced by lipid nanoparticles in mice (bioluminescence). Type of test: in vivo, mouse. The settings on record: luciferase mRNA LNP. As for the experimental part: To further assess potency of expression and metabolic stability of lipids of the disclosure, expression of luciferase was measured following administration to rodents of a nanoparticle of the disclosure comprising an mRNA containing luciferase.
Lipid nanoparticles including DSPC as a phospholipid, cholesterol as a structural lipid, Compound I as a PEG lipid, an ionizable amino lipid of Formula (II), and an mRNA encoding luciferase were intravenously administered to CD-1 mice and Sprague Dawley rats. […]

Results on 1 molecule are retold here after patent publication US20240226025A1, “POLYNUCLEOTIDES ENCODING METHYLMALONYL-COA MUTASE FOR THE TREATMENT OF METHYLMALONIC ACIDEMIA” (ModernaTX, Inc., priority 2021, published 2024).

Molecules are shown by their SMILES.

Consider `CCCCCCCCC(CCCCCCCC)OC(=O)CCCCCCCN(CCCCCCCC(=O)OCC(CCCC)CCCCCCC)CCCNc1c(NC)c(=O)c1=O` (stereo not shown) [Compound 10], for which the “Total Whole Body Flux @ 6 h (p/s)” value came out at 4.6E+09 p/s.
